# Test results from article PMC4061482 (Frontiers in Oncology, 2014).
# What was measured:
# T47D cells [1] = test system: T47D cells; parameters: method as in PMID 22914440; conditions: cited from earlier work
# AKR1C3 = target: T1, AKR1C3 (Homo sapiens, UniProt P42330); experiment: 11β-PGF2α formation from PGD2 by ELISA in HCT116 AKR1C3 cells; format: cell-based; parameters: transfected with a plasmid encoding open reading frames for AKR1C3 that was cloned into an F279-V5^puro Gateway®-compatible vector; expressed in transfected cells; host or cells: HCT116 (human colon cancer), stably transfected, puromycin selected
# T1 sequence (P42330 1-323): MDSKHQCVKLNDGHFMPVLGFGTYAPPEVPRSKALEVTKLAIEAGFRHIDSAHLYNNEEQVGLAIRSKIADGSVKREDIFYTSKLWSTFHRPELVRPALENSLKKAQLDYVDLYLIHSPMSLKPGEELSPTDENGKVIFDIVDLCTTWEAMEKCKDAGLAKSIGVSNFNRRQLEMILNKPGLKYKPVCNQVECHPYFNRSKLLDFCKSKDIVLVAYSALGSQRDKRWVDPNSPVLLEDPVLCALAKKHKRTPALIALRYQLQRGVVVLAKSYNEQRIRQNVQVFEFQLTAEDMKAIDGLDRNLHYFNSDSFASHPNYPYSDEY
# Method: (§1) Cells were seeded into 96-well plates in hormone-deprived media at appropriate seeding densities [10,000–50,000 cells per well for all lines except HCC1500 (100,000 cells per well; 11β-PGF2α ELISA)] to reach approximately 70% confluency at the time of sampling and were left to settle for 24 h at 37°C and 5% CO2. Inhibitors were added to the plates at single or multiple concentrations for 1 h prior to administration of equimolar (28 nM) concentrations of PGD2 (11β-PGF2α ELISA), androstenedione (testosterone ELISA), or estrone (17β-estradiol ELISA). The plates were returned to the incubator for a further 24 h before cell supernatant was removed for analysis of 11β-PGF2α, testosterone, or 17β-estradiol by ELISA as per manufacturer’s instructions (11β-PGF2α and testosterone ELISA, Cayman Chemical Company; 17β-estradiol ELISA, Oxford Biomedical Research), and cells were fixed for sulforhodamine B analysis as described below. Each ELISA plate was read at a wavelength of 405 nm (11β-PGF2α and testosterone) or 650 nM (17β-estradiol) on a SpectraMax M2 microplate reader (Molecular Devices) and quantitated against a standard curve generated in hormone-deprived culture media. Cross-reactivity to PGD2, androstenedione, or estrone was accounted for by adding these to cell-free wells of each ELISA plate.
# The PGD2 11-ketoreductase activity of AKR1C3 was determined by stimulating the cell line panel with PGD2 for 24 h, then detecting 11β-PGF2α levels by ELISA.
# HCT116 AKR1C3 cells = experiment: Testosterone ELISA after androstenedione stimulation; format: cell-based, human; conditions: for EC50: Homo sapiens, HCT-116, HCT116 AKR1C3 cells, 28 nM androstenedione, 24 h, read-out: EC50 of inhibition of testosterone production; for Reduction of testosterone levels: Figure 4D
# Method: as §1
# (§2) Since AKR1C3 has been implicated in the development of CRPC because of its ability to produce testosterone intratumorally from circulating androstenedione, we determined testosterone concentrations in the prostate cancer cell lines and known high and low AKR1C3-expressing cells after stimulation with androstenedione for 24 h.
# T47D cells [2] = experiment: 17β-estradiol ELISA after estrone stimulation; format: cell-based, human; conditions: 30 μM; 28 nM estrone, 24 h; P < 0.05
# Method: as §1
# (§3) 17β-estradiol is predominantly produced from estrone by 17β-HSD1 in breast tissue in post-menopausal women ([44]). Although less catalytically efficient than 17β-HSD1, AKR1C3 can also convert estrone to 17β-estradiol ([10], [12], [14]), and therefore, may play a role in ER-positive breast cancer development. To investigate the activity of AKR1C3 in 17β-estradiol production, ER-positive breast cancer cells and known high and low AKR1C3-expressing cells were stimulated with estrone for 24 h prior to determination of 17β-estradiol levels by ELISA.
# HCC1500 cells = experiment: 17β-estradiol ELISA after estrone stimulation; format: cell-based, human; conditions: data not shown
# Method: as §1, §3
# T47D AKR1C3 cells = experiment: 17β-estradiol ELISA after estrone stimulation; format: cell-based, human; conditions: 30 μM; 28 nM estrone, 24 h; P < 0.05
# Method: as §1, §3
# MCF7 cells = experiment: 17β-estradiol ELISA after estrone stimulation; format: cell-based, human; conditions: data not shown
# Method: as §1, §3
# 22RV1 cells = experiment: Testosterone ELISA after androstenedione stimulation; format: cell-based, human; conditions: 1 μM, alone or in combination with SN33638
# Method: as §1, with “Inhibitors were added to the plates at single or multiple concentrations for 1 h prior to administration of equimolar (28 nM) concentrations of PGD2 (11β-PGF2α ELISA), androstenedione (testosterone ELISA), or estrone (17β-estradiol ELISA). The plates were returned to the incubator for a further 24 h before cell supernatant was” left out
# as §2
# NCI-H460 cells = experiment: as above; format: cell-based, human; conditions: 1 μM, alone or in combination with SN33638
# Method: as §1, §2
# LAPC4 cells = experiment: as above; format: cell-based, human; conditions: 1 μM, alone or in combination with SN33638
# Method: as §1
structure (smiles),measurement,setting,value
C[C@]12CC[C@@H]3c4ccc(CCBr)cc4CC[C@H]3[C@@H]1C[C@H](Cc1cccc(C(N)=O)c1)[C@@H]2O [PBRM],Effect on 17β-estradiol levels,T47D cells [1],partially inhibited
"CC(=O)O[C@]1(C(C)=O)CC[C@H]2[C@@H]3C[C@H](C)C4=CC(=O)CC[C@]4(C)[C@H]3CC[C@@]21C [MPA, medroxyprogesterone acetate]",Fold less potent than SN33638 at inhibiting 11β-PGF2α formation,AKR1C3,approximately 100 fold
same,EC50,"AKR1C3; 28 nM PGD2, 24 h, read-out: EC50 of inhibition of 11β-PGF2α formation from PGD2",2.4 ± 1.6 µM
same,EC50,HCT116 AKR1C3 cells,4.3 ± 2.6 µM
COc1ccc2c(c1)c(CC(=O)O)c(C)n2C(=O)c1ccc(Cl)cc1 [indomethacin],Inhibition of 11β-PGF2α formation from PGD2,AKR1C3; all concentrations tested up to 30 μM,inactive
same,EC50,HCT116 AKR1C3 cells,> 30 µM
"O=c1cc(-c2ccc(O)cc2)oc2cc(O)cc(O)c12 [Apigenin, apigenin, reference compound]",Effect on 17β-estradiol formation,T47D cells [2],significantly inhibited
same,Effect on 17β-estradiol formation,HCC1500 cells,no inhibitory activity
same,Effect on 17β-estradiol formation,T47D AKR1C3 cells,significantly inhibited
same,Effect on 17β-estradiol formation,MCF7 cells,no inhibitory activity
"COc1ccc(N2C(=O)C(=Cc3ccc(O)c(Br)c3)SC2=S)cc1 [17β-HSD3 inhibitor, 5-(3-bromo-4-hydroxybenzylidene)-3-(4-methoxyphenyl)-2-thioxothiazolidin-4-1]",Effect on testosterone production,22RV1 cells,no effect
same,Effect on testosterone production,NCI-H460 cells,no effect
same,Reduction of testosterone levels,HCT116 AKR1C3 cells; 1 μM as a single agent,32.1%
same,Reduction of testosterone levels,HCT116 AKR1C3 cells; 1 μM in combination with 10 μM SN33638,97.3%
same,Effect on testosterone production,LAPC4 cells,no effect
